Reference: patent US7052850B2, “Isolated human EDG-4 receptor” (priority 1997, dated 2006)

Key:
293-EBNA cells = type: cell-based
Procedure: (§1) Transfection of EDG-4, expression, pretreatment and treatment of 293-EBNA cells expressing recombinant human EDG-4 was carried out essentially as described in “Example 11. […] Results were tabulated in Microsoft Excel, and analyzed with GraphPad Prism sotfware. […] The luciferase response was expressed as fold response, after subtracting any endogenous response in pcDNA3-transfected cells at a given concentration of compound.

human EDG-4 = molecular target: T1, human EDG-4 (Homo sapiens, UniProt O95136, F273L/I205V); assay: Relative potency and efficacy of agonists, luciferase (SRE) reporter in 293-EBNA cells expressing recombinant human EDG-4; type: cell-based; details: for Rank (EMax): rank of efficacy
T1 construct: a 1059 bp open reading frame (excluding the stop codon) corresponding to the complete human edg-4 coding region; expressed in transfected cells; host or cells: 293-EBNA
Procedure: as §1

[1] = test system: Human Umbilical Vein Endothelial Cells (HUVEC); assay: IL-8 response in primary cultured HUVEC; type: cell-based; details: 5 μM, 6 hr
Procedure: Cells: HUVEC (Clonetics, Cat. CC-2519) were passaged according to supplier's instructions and used at passage 3. Cells were plated at 20,000 cells/well into 24-well plates. […] LPA induced a 3-fold IL-8 increase at this concentration. […] As shown below in FIG. 23, three cloned edge receptors respond to LPA as an agonist, and all three appear to transduce NF-κB activation in an agonist-dependent manner.

rat EDG-4 = rat EDG-4 (Rattus norvegicus, UniProt P47752); assay: NF-κB-tk-p4Luc luciferase reporter in 293-EBNA cells, rat EDG-4; type: cell-based; design: transient transfection with a eukaryotic expression vector expressing full-length rat edg-4 cDNA; expressed in transfected cells; host or cells: 293-EBNA; details: Assay 1; 24 hrs
From the text: First, the NF-κB response element was reconstructed in a new reporter construct (p4Luc) suitable for stable maintenance as an episome in primate cells. […] The p4-Luc reporter used the backbone of pREP4 (Invitrogen; Cat. V004-50), which contains the EBV orgin of replicaiton (EBVoni), as well as the EBNA-1 viral antigen required to maintain EBVoti containing plasmids as stable episoms in primate cells, and a prokayotic selection marker. A dominant eukaryotic selection marker for zeocin resistance was substituted for expression in pREP4. The promoter of pREP4 was then excised and replaced with a multi-cloning site for introduction of promoter/enhancer inserts. The NF-κB inser of the previous CAT reporter was subcloned into this site and all cloning junctions were sequenced to verify the structure of the plasmid, called NF-κB-tk-p4Luc.
• 1) 150 mm plates of 293-EBNA obtained from Invitrogen (Cat. R620-07) with a confluency of 18 80% were used for transfection. • 2) 6.6 μg NF-κB-tk-p4Luc reporter DNA and 6.6 μg of pC3-redg4 (expressing rat EDG-4), or pcDNA3 DNA was diluted in 500 μl OPTI-MEM (Gibco; Cat. 31985-062) • 3) 96.8 μl Lipofectamine (Gibco; Cat. 18324-020) was diluted in 500 μl of OPTI-MEM. • 4) The 2 solutions were mixed gently and the tube was incubated for 30 min at room temperature. • 5) The 293-EBNA plates were washed once with PBS and 13 ml OPTI-MEM was added to each plate, • 6) 6 ml OPTI-UMM was added to each transfection tube and this was added to a plate of 293EBNA cells. The plates were left for 4 hrs at 37° C. in a 5% CO2 incubator. • 7) After 4 his, the media was removed and replaced with frest 10% FBS media. Day 2: • 1) Transfected cells were washed, typsinized with 1× tryspin, resuspended in 10 ml media and counted. • 2) 0.02×10 ^6 cells were plated per well of a 96-well Blackview plate coated with polyD-lysine. No cells were plated in the outside wells of the 96-well plate. Two 96-well plates were seeded for each transfection. Day 3: • 1) Cells were washed with PBS and 140 μl serum-free media (SFM) added to each well. Plates were incubated in 37° C. incubator for 6 hrs. • 2) After 6 hrs, media was removed and cells treated with compounds diluted in 0.5% FBS media (140 μl added to each well).
Day 4 Luciferase Assay • 1) Luclite kit (Packard; Cat. 6016911) was used for luciferase assay. All reagents were brought to room temperature before use. • 2) Supernatant was transferred to a new 96-well plate and stored at −20 C. for rupture IL-8 measurement. • 3) 50 μl 0.5 M HEPES pH 7.8 buffer (1 mM MgCl21 mM CaCl2) was addeded to all wells of 96-well plate. Black adhesive backing (polyfitronics) was aligned to the bottom of the viewplate. • 4) Luclite substrate was made up by adding 10 ml substate diluent to 1 vial lyophilized substrate. Reconstituted substrate was kept under a dark container. 50 μl substrate was added to each well. • 5) A clear adhesive plate sealer was adjusted on to the viewplate and sealer rubbed over the plate with a Kimwipe. The plate was shaken on a plate shaker at 500 rpm for 5 seconds right side up and then upside down. A stop plate was placed on top of the blackview plate to keep it in the dark. • 6) Plates were incubated at room temperature for 30 min. • 7) After incubation, plates were counted in a 12 detector Packard Top Count on a program without dark delay.

HeLa cells [2] = assay: IL-8 response (IL-8 ELISA) in HeLa cells; type: cell-based, human
Procedure: • Cells: HeLa (adenocarcinoma, human) • Media: DMEM/F12+10% FBS Adherent • 1) Cells were seeded at 0.2×10^6 cells/well in 6-well plates. • 2) Confluency of cells after 24–32 hrs was between 60–70%. B. Overnight Serum-Starvation • 1) Media was aspirated (no PBS wash). • 2) 1.5 ml 0.5% FBS media was added to each well. C. Treatments and Collection • 1) Made up all required solutions in 0.5% FBS media (control). Handling of […] for use in NF-κB experiments requires that sonication, commonly used to resuspend LPA, not be done; NF-κB may be activated by lipid peroxides created through vigorous frothing. Solutions:
D. Detection of Interleukin-8 (IL-8) using an IL-8 ELISA (Enzyme-Linked ImmunoSorbent Assay). • 1) The Quantikine Human IL-8 Immuno Assay Kit was obtained from R&D Systems (Cat. D8050). • 2) The kit and all samples were allowed to equlibrate to room temperature prior to use. • 3) All reagents were provided in the kit and prepared according to the instructions provided. • 4) The assay procedure was followed as recommended in the kit for cell culture supernatant samples. • 5) ELISA was performed on 50 μl samples of culture supernatant and duplicate samples were measured for each well. Each treatment was performed on triplicate wells. • 6) Plates were read on UV max kinetic microplate reader (Molecular Devices), set to 450 nm and correction set to 575 nm, using Wsoftmax sotware version 2.34.
• 1) Cells were seeded at 2.5×10^4 cells/well in 24-well plates. • 2) Confluency of cells after 24–32 hrs was between 60–70%. B. Overnight Serum-Starvation and PTX Pre-Treatment • 1) Media was aspirated (no PBS wash). • 2) 0.5 ml 0.5% FBS media was added to all wells not requiring PTX pre-treatment. • 3) For well requiring PTX; 0.5 ml 0.5% FBS media containing 50 ng/ml PTX (1 volume PTX (RBI Cat. P140): 1 volume DTT, incubate 37° C. for 30 minutes then dilute to 50 ng/ml) was added. C. Treatments and Collection • 1) Made up all required solutions in 0.5% FBS media (control). […] D. Refer to Procedure #1 For HeLa Cells (D).

HL-60 cells = assay: IL-8 response in HL-60 cells; type: cell-based, human; details: 1, 6 or 24 hours, S1P or LPA up to 3 μM, TNF-α 10 ng/ml
HeLa cells [3] = assay: Cytotoxicity (viable cell count at 24 hr) in HeLa cells; details: NDGA 40 μM
Procedure: For this purpose, an experiment was conducted to measure cytotoxicity in parallel with IL-8 response.

[4] = S1P 1 μM, NDGA 40 or 10 μM, NAC 30 mM, 30 minute pre-treatment

T1 sequence (O95136 whole entry I205V/F273L): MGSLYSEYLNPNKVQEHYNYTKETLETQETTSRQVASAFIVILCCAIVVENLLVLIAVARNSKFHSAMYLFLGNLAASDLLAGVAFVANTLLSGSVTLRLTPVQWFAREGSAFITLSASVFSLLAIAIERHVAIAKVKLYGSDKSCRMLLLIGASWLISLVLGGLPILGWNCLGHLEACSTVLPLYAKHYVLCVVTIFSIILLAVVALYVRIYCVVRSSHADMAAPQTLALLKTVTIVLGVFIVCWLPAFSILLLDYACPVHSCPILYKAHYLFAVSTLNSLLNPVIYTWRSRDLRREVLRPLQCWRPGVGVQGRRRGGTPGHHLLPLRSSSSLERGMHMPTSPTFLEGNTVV
rat EDG-4, sequence (P47752 whole entry): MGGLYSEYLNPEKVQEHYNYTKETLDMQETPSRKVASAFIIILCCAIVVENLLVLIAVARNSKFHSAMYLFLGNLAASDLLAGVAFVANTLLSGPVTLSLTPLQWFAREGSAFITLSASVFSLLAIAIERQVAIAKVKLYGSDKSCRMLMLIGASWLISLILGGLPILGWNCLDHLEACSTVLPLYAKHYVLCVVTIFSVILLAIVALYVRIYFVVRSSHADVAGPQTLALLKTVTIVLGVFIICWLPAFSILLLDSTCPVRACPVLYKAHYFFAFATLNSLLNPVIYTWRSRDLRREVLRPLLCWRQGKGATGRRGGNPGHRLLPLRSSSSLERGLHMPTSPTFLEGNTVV

Molecule: CCCCCCCCCCCCC/C=C/[C@@H](O)C(N)CO[C@@H]1O[C@H](CO)[C@@H](O)[C@H](O)[C@@H]1O (stereo partly shown) [Glucospychosin, glucopsychosine]
- concentration at which cytotoxicity was seen (293-EBNA cells): ^aCytotoxicity was seen at 10 μM or higher concentrations, preventing quantitative determination of EC50 or EMax
- agonist character at EDG-4 (human EDG-4): poor potency and efficacy
- Rank (EMax) (human EDG-4): 4

Molecule: CCCCCCCCCCCCCCC[C@@H](O)[C@@H](N)COP(=O)(O)O [Dihydro-S1P, dihydrosphingosine 1-phosphate]
- agonist character at EDG-4 (human EDG-4): partial agonist
- Rank (EMax) (human EDG-4): 3

Molecule: CCCCCCCCCCCCC/C=C/[C@@H](O)[C@@H](N)CO[C@@H]1O[C@H](CO)[C@H](O)[C@H](O)[C@H]1O [Psychosine, psychosine]
- concentration at which cytotoxicity was seen (293-EBNA cells): ^aCytotoxicity was seen at 10 μM or higher concentrations, preventing quantitative determination of EC50 or EMax
- agonist character at EDG-4 (human EDG-4): poor potency and efficacy
- Rank (EMax) (human EDG-4): 5
- IL-8 levels, increase over untreated controls [1]: Marginal increases

Molecule: CCCCCCCCCCCCCC(=O)O[C@@H]1[C@@H](C)[C@@]2(O)[C@@H](C=C(CO)C[C@]3(O)C(=O)C(C)=C[C@@H]23)[C@H]2C(C)(C)[C@]12OC(C)=O [TPA]
- induction of NF-κB reporter (rat EDG-4): strongly induced

Molecule: CC(=O)N[C@@H](CS)C(=O)O [NAC]
- inhibition of IL-8 response to S1P (HeLa cells [2]; [4]): significantly inhibited

Molecule: TNF-α
- IL-8 release (HL-60 cells): capable of responding at 6 or 24 hr

Molecule: CCCCCCCCCCCCC/C=C/[C@@H](O)[C@@H](N)CO [sphingosine]
- IL-8 induction (HeLa cells [2]; 6 hours, concentration series): lack of response

Molecule: Cc1ccc(C(=O)Nc2ccc(S(=O)(=O)O)c3cc(S(=O)(=O)O)cc(S(=O)(=O)O)c23)cc1NC(=O)c1cccc(NC(=O)Nc2cccc(C(=O)Nc3cc(C(=O)Nc4ccc(S(=O)(=O)O)c5cc(S(=O)(=O)O)cc(S(=O)(=O)O)c45)ccc3C)c2)c1 [Suramin]
- inhibition of IL-8 response to edelfosine (HeLa cells [2]; ET-18-OCH3 3 μM, PTX 50 ng/ml or suramin 1 mg/ml): potently inhibited
- effect on IL-8 response to S1P (HeLa cells [2]; S1P 1 μM, suramin 1 mg/ml, 30 minute pre-treatment): extremely effective in blunting the IL-8 response to S1P

Molecule: CCCCC/C=C\C/C=C\C/C=C\C/C=C\CCCC(=O)NCCO [anandamide]
- IL-8 levels, increase over untreated controls [1]: no responses

Molecule: CC(Cc1ccc(O)c(O)c1)C(C)Cc1ccc(O)c(O)c1 (stereo not shown) [NDGA]
- toxicity (HeLa cells [3]): some toxicity
- inhibition of IL-8 response to S1P (HeLa cells [2]; S1P 1 μM, NDGA 40 μM): completely inhibited
- inhibition of IL-8 response to S1P (HeLa cells [2]; [4]): significantly inhibited
